Results on one molecule are retold here after patent US20240368115A1, “REGULATOR CONTAINING TRICYCLIC DERIVATIVE, PREPARATION METHOD THEREFOR AND APPLICATION THEREOF” (SHUJING BIOPHARMA CO., LTD, priority 2021, published 2024).

A word on the IC50: it is the concentration at which inhibition is half-maximal. For orientation: half-life means how long it takes for the measured level to halve. A lower half-life goes with rapid decline. The term AUC(0-inf) denotes the area under the concentration-time curve extrapolated to infinity. A word on the Cmax: it is the highest concentration seen after dosing. The EC50 is the concentration that produces a half-maximal response. Higher therefore signals a need for much substance.

In one series the target is 5-HT2B receptor (Homo sapiens, UniProt P41595). Description: Calcium flux test for 5-HT2B receptor. The following applies: HEK293 cell strain stably expressing 5-HT2B receptor. Type of series: cell-based. The source says:
• Fluo-4 calcium flux detection kit was purchased from Invitrogen; an HEK293 cell strain stably expressing 5-HT2B receptor was purchased from GenScript; serotonin was purchased from Sigma; methiothepin was purchased from Targetmol; polylysine-coated 384-well plates and 384-well compound plates were purchased from Greiner Bio-One. Molecular Device FLIPR, Agilent Bravo liquid workstation, and Countstar BioTech cell counter.
• (1) The cultured cells were digested with trypsin, and the cell suspension was taken after the digestion was terminated. The cryopreserved cells were rapidly thawed in a water bath at 37° C., and the cells were resuspended in a plating medium. […] The pellet was resuspended in an appropriate amount of plating medium, 20 μL of cell suspension was counted using a cell counter, and the cell density was diluted to 1×10^6 cells/mL. • (2) 20 μL of cell suspension was added to a polylysine-coated 384-well plate (2×10^4 cells/well). • (3) The cell plate was incubated in a 37° C./5% CO2 incubator for 16-20 h.
• (1) The cell plate was taken out from the incubator and centrifuged at 100×g to remove the medium. […] The cell plate and agonist positive compound plate were placed into the FLIPR instrument, the detection program was run, 10 μL of the diluted compound was transferred from the agonist compound plate to the cell plate, and the fluorescence signal was read. […]

A short description of series [1]: Pharmacokinetic test in mice. The series is classed as in vivo. The conditions noted are these: male, ICR, mouse, plasma, po, 5 mg/kg, oral intragastric, single dose 5 mg/kg. Summed up: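 Male ICR mice, fasted overnight, received a single oral gavage in 5% DMSO/95% of 20% aqueous cyclodextrin. Fundus-vein plasma was sampled from 0 to 24 h (3 time points per mouse) and assayed by LC-MS/MS. PK parameters came from non-compartmental analysis using the linear log-trapezoidal method.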

The target of the next series is T1, D2S receptor (Homo sapiens, UniProt P14416).
T1 construct: expressed in transfected cells
Description: D2S receptor cAMP agonist test. Type of series: cell-based. The conditions noted are these: HEK293 cell strain stably expressing D2S receptor.

Sequence of 5-HT2B receptor (P41595 whole entry): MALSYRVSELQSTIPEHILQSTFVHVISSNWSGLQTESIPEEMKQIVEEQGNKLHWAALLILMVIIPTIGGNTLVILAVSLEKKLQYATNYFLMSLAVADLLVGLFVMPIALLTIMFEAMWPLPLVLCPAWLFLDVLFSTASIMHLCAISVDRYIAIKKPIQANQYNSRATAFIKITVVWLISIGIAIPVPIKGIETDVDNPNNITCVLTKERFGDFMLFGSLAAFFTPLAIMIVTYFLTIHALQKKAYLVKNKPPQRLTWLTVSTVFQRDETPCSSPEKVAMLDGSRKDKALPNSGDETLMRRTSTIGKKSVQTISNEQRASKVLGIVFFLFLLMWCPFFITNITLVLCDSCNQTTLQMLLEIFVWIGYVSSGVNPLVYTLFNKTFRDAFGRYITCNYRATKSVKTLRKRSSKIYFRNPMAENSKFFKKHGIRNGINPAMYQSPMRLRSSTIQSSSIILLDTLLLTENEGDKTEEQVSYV
T1 sequence (P14416 1-414 isoform P14416-2): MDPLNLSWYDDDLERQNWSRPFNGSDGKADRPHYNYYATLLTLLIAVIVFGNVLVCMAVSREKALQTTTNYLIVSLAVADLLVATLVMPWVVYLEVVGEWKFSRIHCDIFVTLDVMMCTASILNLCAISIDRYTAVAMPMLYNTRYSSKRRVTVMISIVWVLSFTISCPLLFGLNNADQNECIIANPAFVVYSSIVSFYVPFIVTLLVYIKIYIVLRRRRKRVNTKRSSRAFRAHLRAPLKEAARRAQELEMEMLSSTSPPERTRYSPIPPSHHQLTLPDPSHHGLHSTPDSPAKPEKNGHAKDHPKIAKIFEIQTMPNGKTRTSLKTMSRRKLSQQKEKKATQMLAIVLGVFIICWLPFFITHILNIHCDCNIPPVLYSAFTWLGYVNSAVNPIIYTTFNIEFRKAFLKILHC

In the case of `O=C1Nc2cc(OCCCCN3CCN(c4cccc(Cl)c4Cl)CC3)ccc2C2CC12` (stereo not shown) [Example 1, 5-(4-(4-(2,3-Dichlorophenyl)piperazin-1-yl)butoxy)-3,7b-dihydro-1H-cyclopropa[c]quinolin-2(1aH)-one], the IC50 at 5-HT2B receptor (calcium flux, antagonism of serotonin) stood at 658 nM. For the same molecule, on 5-HT2B receptor (positive control methiothepin 10^−5 M), the “5-HT2B Max Inh %” value turned out to be 105.8%. Further, the half-life in series [1] is 10.8 h. For the same molecule, in series [1] (read-out: AUC(0-inf)), the AUC(0-inf) turned out to be 7160 ng·h/mL. Further, the maximum concentration (Cmax) in series [1] (read-out: Cmax) came to 511 ng/mL. The molecule further yielded an EC50 on D2S receptor (cAMP, forskolin 5×10^−7 M) of 0.97 nM. Further, the “D2S Max Act %” value on D2S receptor (positive control dopamine 1×10^−7 M) was 114.9%.
